Experimental data taken from PubChem BioAssay (NCI).
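GI50 marks 50% less growth. TGI is the concentration that stops growth completely.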

How the values were obtained:
Assay in all cases: growth of human tumour cells (NCI), 384-well format
TK-10 renal = test system: TK-10 renal
NCI/ADR-RES ovarian = test system: NCI/ADR-RES ovarian
T-47D breast = test system: T-47D breast
SW-620 colon = test system: SW-620 colon
SNB-75 CNS = test system: SNB-75 CNS
HOP-92 NSCLC = test system: HOP-92 NSCLC
RPMI-8226 leukemia = test system: RPMI-8226 leukemia
M14 melanoma = test system: M14 melanoma
SK-OV-3 ovarian = test system: SK-OV-3 ovarian
NCI-H522 lung = test system: NCI-H522 lung
786-0 renal = test system: 786-0 renal
EKVX NSCLC = test system: EKVX NSCLC
K-562 leukemia = test system: K-562 leukemia

Work on O=C1CC[C@H](N2Cc3c(OCc4ccc(CN5CCOCC5)cc4)cccc3C2=O)C(=O)N1 yielded a GI50 (TK-10 renal) of over 100 µM, a TGI (TK-10 renal) of over 100 µM and a GI50 (NCI/ADR-RES ovarian) of over 100 µM. For the same compound, the TGI (NCI/ADR-RES ovarian) was over 100 µM, the GI50 (T-47D breast) was over 100 µM and the TGI (T-47D breast) was over 100 µM. The GI50 (SW-620 colon) was over 100 µM, the TGI (SW-620 colon) was over 100 µM and the GI50 (SNB-75 CNS) was over 100 µM. The TGI (SNB-75 CNS) was over 100 µM, the GI50 (HOP-92 NSCLC) was over 100 µM and the TGI (HOP-92 NSCLC) was over 100 µM. For the same compound, the GI50 (RPMI-8226 leukemia) was 11.9 µM, the TGI (RPMI-8226 leukemia) was over 100 µM and the GI50 (M14 melanoma) was over 100 µM. The TGI (M14 melanoma) was over 100 µM, the GI50 (SK-OV-3 ovarian) was over 100 µM and the TGI (SK-OV-3 ovarian) was over 100 µM. It also gave a GI50 (NCI-H522 lung) of over 100 µM, a TGI (NCI-H522 lung) of over 100 µM and a GI50 ([…]-0 renal) of over 100 µM. The TGI (786-0 renal) was over 100 µM, the GI50 (EKVX NSCLC) was over 100 µM and the TGI (EKVX NSCLC) was over 100 µM. For the same compound, the GI50 (K-562 leukemia) was over 100 µM and the TGI (K-562 leukemia) was over 100 µM.
